Measured values published in patent US12516285B2, “Small peptide MIPEP166I and use thereof in plant tissue culture” (Nanjing Forestry University, priority 2023, dated 2026).
Marks after values point to notes of the source that are not given here.

What was measured:
Type in all cases: in vivo, 84K poplar (Populus alba×Populus tremula var. glandulosa)
miR166i = experiment: RT-qPCR of miR166i in 84K poplar after exogenous peptide treatment
Procedure: (§1) The three synthetic peptides were each added to MS medium at a concentration of 5 μM as exogenous treatments, while sterile water was chosen as the blank control (CK) treatment (FIG. 1B).
(§2) To investigate the possible role of miPEP166i in its corresponding miRNA biogenesis, RT-qPCR was first used to analyze the abundance changes of pri-miR166i and miR166i in 84K poplar after 24 hours of exogenous treatment.
(§3) During the process of adventitious root elongation, samples collected at 6, 9, and 12 days after cultivation (T1, T2, and T3 stages) were used to detect the expression of miR166i and its targets, aiming to explore the dynamic regulatory pattern of exogenous miPEP166i treatment (FIG. 3A). Due to the equivalence of NSP and IP treatments (FIG. 2G and FIG. 2H), only samples treated with CK, NSP, and miPEP, along with control samples, were used for quantitative miRNA expression and transcriptome sequencing analysis.

84K poplar = experiment: Adventitious root formation and elongation in tissue culture on peptide-treated MS medium; conditions: 5 μM in MS medium, plants cultured for two weeks, n=15
Procedure: as §1
This may be due to the exogenous peptides acting as biological stimulants and osmotic agents, broadly inducing miRNA expression, with the lowest expression of miR166i observed in the CK samples.

[1] = tested on: Genes in Hormone Metabolism and Signaling Pathways; experiment: Time-course transcriptome (RNA-seq), hormone-related genes
From the text: as §3
(§4) RNA-seq libraries were constructed from the root systems of 84K poplar to investigate the effects of miPEP166i induction on miR166i targets.
(§5) Using time-course transcriptome data from the root systems of 84K poplar, we explored the potential downstream gene expression responses induced by exogenous application of miPEP166i. By cross-comparing miPEP treatment with mock treatment and miPEP treatment with NSP treatment, we identified 114, 130, and 547 differentially expressed genes (DEGs) (|log2FC|>1 and FDR<0.05) at the T1, T2, and T3 stages, respectively. […] These genes are controlled by the master switches of HD-ZIP III transcription factors.
Multiple intersections between hormone signaling and HD-ZIP III activity occur during root elongation. Numerous plant hormone-related genes were found within the DEG set, including genes related to auxin and cytokinin synthesis, (De)conjugation, transport, and signaling (Table 1).

PagHB8 = experiment: Expression of miR166i target gene PagHB8 (RT-qPCR and RNA-seq)
From the text: as §3, §4

pri-miR166i = experiment: RT-qPCR of pri-miR166i in 84K poplar stem explants after exogenous peptide treatment; conditions: 5 μM in MS medium, 24 hours, vs control treatments
Procedure: as §1, §2

PagREV = experiment: Expression of miR166i target gene PagREV (RT-qPCR and RNA-seq)
From the text: as §3, §4

[2] = tested on: root systems of 84K poplar; experiment: Time-course transcriptome (RNA-seq), differentially expressed genes; conditions: for differentially expressed genes (DEGs): miPEP vs mock and vs NSP, |log2FC|>1 and FDR<0.05
From the text: as §3, §4, §5

[3] = T3 stage (12 DAC), miPEP vs NSP
[4] = T1 stage (6 days after culture), P<0.05
[5] = T2 and T3 stages (9 and 12 days after culture)

Which “expression of miR166i compared to NSP samples” value (miR166i; 5 μM in MS medium, stem explants, 24 hours) does the source give for “IP: interference control peptide, same amino acids but different sequence, MSDFGGQPTLPFCLSSLNPKSTLK (SEQ ID NO.5)” here?
The value was “slightly higher expression of miR166i was observed after IP treatment compared to its expression in NSP samples, the difference was not significant”.

And the “length of adventitious roots” value (84K poplar)?
The value was “equivalence”.

And the “number of adventitious roots” value (84K poplar)?
Its value is “equivalence”.

Which results are given for “NSP: non-specific control peptide of 15 amino acids, CLLNCPIYWQQLREX (SEQ ID NO.4)”?
length of adventitious roots (84K poplar): equivalence; number of adventitious roots (84K poplar): equivalence

What does the source list for “miPEP166i: small peptide encoded by pri-miRNA166i of 84K poplar, amino acid sequence SEQ ID NO.3 (MDGQTPCSLPSLSFGPLFLSNKTK; Populus alba x Populus tremula var. glandulosa)”?
expression of miR166i (miR166i; 5 μM in MS medium, stem explants, 24 hours, vs the three control treatments): significantly enhanced; miR166i expression (miR166i; T1, T2 and T3 stages (6, 9, 12 days after culture), vs CK and NSP): significant enhancement; FC_T1 miPEP/CK, ABCB9 (Pag_G_024492) ([1]; T1 stage (6 DAC), miPEP vs CK): −1.07*; FC_T1 miPEP/CK, CKX3 (Pag_A_037490) ([1]; T1 stage (6 DAC), miPEP vs CK): 4.85*; FC_T1 miPEP/CK, GH3.10 (Pag_A_034334) ([1]; T1 stage (6 DAC), miPEP vs CK): −2.92*; FC_T1 miPEP/CK, GH3.10 (Pag_G_015269) ([1]; T1 stage (6 DAC), miPEP vs CK): −1.67**; FC_T1 miPEP/CK, GH3.10 (Pag_G_025244) ([1]; T1 stage (6 DAC), miPEP vs CK): −4.42*; FC_T1 miPEP/CK, LOG5 (Pag_G_021773) ([1]; T1 stage (6 DAC), miPEP vs CK): −1.91*; FC_T1 miPEP/NSP, ABCB9 (Pag_G_024492) ([1]; T1 stage (6 DAC), miPEP vs NSP): −0.72; FC_T1 miPEP/NSP, CKX3 (Pag_A_037490) ([1]; T1 stage (6 DAC), miPEP vs NSP): 2.61; FC_T1 miPEP/NSP, GH3.10 (Pag_A_034334) ([1]; T1 stage (6 DAC), miPEP vs NSP): −2.2; FC_T1 miPEP/NSP, GH3.10 (Pag_G_015269) ([1]; T1 stage (6 DAC), miPEP vs NSP): −1.21*; FC_T1 miPEP/NSP, GH3.10 (Pag_G_025244) ([1]; T1 stage (6 DAC), miPEP vs NSP): −3.64; FC_T1 miPEP/NSP, LOG5 (Pag_G_021773) ([1]; T1 stage (6 DAC), miPEP vs NSP): −2.14*; FC_T2 miPEP/CK, CKI1 (Pag_A_024550) ([1]; T2 stage (9 DAC), miPEP vs CK): 1.02**; FC_T2 miPEP/CK, CKI1 (Pag_G_014127) ([1]; T2 stage (9 DAC), miPEP vs CK): 0.93*; FC_T2 miPEP/CK, CKX1 (Pag_G_016517) ([1]; T2 stage (9 DAC), miPEP vs CK): −1.17; FC_T2 miPEP/CK, TAA1 (Pag_G_035628) ([1]; T2 stage (9 DAC), miPEP vs CK): 0.74; FC_T2 miPEP/CK, TAA1 (Pag_G_035629) ([1]; T2 stage (9 DAC), miPEP vs CK): 0.78; FC_T2 miPEP/NSP, CKI1 (Pag_A_024550) ([1]; T2 stage (9 DAC), miPEP vs NSP): 1.11**; FC_T2 miPEP/NSP, CKI1 (Pag_G_014127) ([1]; T2 stage (9 DAC), miPEP vs NSP): 1.14**; FC_T2 miPEP/NSP, CKX1 (Pag_G_016517) ([1]; T2 stage (9 DAC), miPEP vs NSP): −2.19*; FC_T2 miPEP/NSP, TAA1 (Pag_G_035628) ([1]; T2 stage (9 DAC), miPEP vs NSP): 1.72*; FC_T2 miPEP/NSP, TAA1 (Pag_G_035629) ([1]; T2 stage (9 DAC), miPEP vs NSP): 1.49**; expression of genes encoding auxin transport proteins (PIN, ABCB, PIN-LIKES) ([1]; T3 stage): significantly increased; FC_T3 miPEP/CK, ABCB8 (Pag_A_020924) ([1]; T3 stage (12 DAC), miPEP vs CK): −1.18**; FC_T3 miPEP/CK, ABCB11 (Pag_A_005381) ([1]; T3 stage (12 DAC), miPEP vs CK): 2.40**; FC_T3 miPEP/CK, ABCB11 (Pag_A_010928) ([1]; T3 stage (12 DAC), miPEP vs CK): 1.90**; FC_T3 miPEP/CK, ABCB11 (Pag_G_007723) ([1]; T3 stage (12 DAC), miPEP vs CK): 2.08**; FC_T3 miPEP/CK, ABCB15 (Pag_A_017535) ([1]; T3 stage (12 DAC), miPEP vs CK): 1.05**; FC_T3 miPEP/CK, ABCB15 (Pag_G_028009) ([1]; T3 stage (12 DAC), miPEP vs CK): 1.21**; FC_T3 miPEP/CK, ABCB25 (Pag_A_009324) ([1]; T3 stage (12 DAC), miPEP vs CK): 1.18; FC_T3 miPEP/CK, ARF11 (Pag_G_003815) ([1]; T3 stage (12 DAC), miPEP vs CK): −1.75**; FC_T3 miPEP/CK, IAA29 (Pag_G_007396) ([1]; T3 stage (12 DAC), miPEP vs CK): −0.94*; FC_T3 miPEP/CK, LOG1 (Pag_A_016041) ([1]; T3 stage (12 DAC), miPEP vs CK): −2.72**; FC_T3 miPEP/CK, LOG3 (Pag_G_010191) ([1]; T3 stage (12 DAC), miPEP vs CK): −1.55; FC_T3 miPEP/CK, PILS3 (Pag_A_012930) ([1]; T3 stage (12 DAC), miPEP vs CK): 4.74*; FC_T3 miPEP/CK, PILS7 (Pag_G_005929) ([1]; T3 stage (12 DAC), miPEP vs CK): 0.96**; FC_T3 miPEP/CK, PIN7 (Pag_A_015236) ([1]; T3 stage (12 DAC), miPEP vs CK): 1.33**; FC_T3 miPEP/CK, PIN8 (Pag_A_008558) ([1]; T3 stage (12 DAC), miPEP vs CK): −1.07*; FC_T3 miPEP/CK, PIN8 (Pag_G_019315) ([1]; T3 stage (12 DAC), miPEP vs CK): 1.02**; FC_T3 miPEP/NSP, ABCB8 (Pag_A_020924) [1, 3]: −0.71; FC_T3 miPEP/NSP, ABCB11 (Pag_A_005381) [1, 3]: 1.34**; FC_T3 miPEP/NSP, ABCB11 (Pag_A_010928) [1, 3]: 1.13*; FC_T3 miPEP/NSP, ABCB11 (Pag_G_007723) [1, 3]: 1.34*; FC_T3 miPEP/NSP, ABCB15 (Pag_A_017535) [1, 3]: 1.11**; FC_T3 miPEP/NSP, ABCB15 (Pag_G_028009) [1, 3]: 1.27**; FC_T3 miPEP/NSP, ABCB25 (Pag_A_009324) [1, 3]: 3.26*; FC_T3 miPEP/NSP, ARF11 (Pag_G_003815) [1, 3]: −1.14*; FC_T3 miPEP/NSP, IAA29 (Pag_G_007396) [1, 3]: −1.21**; FC_T3 miPEP/NSP, LOG1 (Pag_A_016041) [1, 3]: −2.28*; FC_T3 miPEP/NSP, LOG3 (Pag_G_010191) [1, 3]: −1.86*; FC_T3 miPEP/NSP, PILS3 (Pag_A_012930) [1, 3]: −2.93; FC_T3 miPEP/NSP, PILS7 (Pag_G_005929) [1, 3]: 1.03**; FC_T3 miPEP/NSP, PIN7 (Pag_A_015236) [1, 3]: 1.08**; FC_T3 miPEP/NSP, PIN8 (Pag_A_008558) [1, 3]: −0.94; FC_T3 miPEP/NSP, PIN8 (Pag_G_019315) [1, 3]: 1.16**; expression of PagCKI1 (cytokinin signaling) ([1]; miPEP-treated samples): upregulated; expression of PagGH3 (auxin conjugation) ([1]; miPEP-treated samples): downregulated; expression of auxin synthesis gene PagTAA1 ([1]; miPEP-treated samples): significantly upregulated; expression of cytokinin synthesis gene PagLOG ([1]; miPEP-treated samples): significantly downregulated; expression of PagHB8 (PagHB8; [4]): significantly reduced; expression of PagHB8 (PagHB8; [5]): no significant reduction; expression of pri-miR166i (pri-miR166i): did not result in significant changes; expression of PagREV (PagREV; [4]): significantly reduced; expression of PagREV (PagREV; [5]): no significant reduction; length of adventitious roots (84K poplar): significant increase; number of adventitious roots (84K poplar): significant increase; differentially expressed genes (DEGs) ([2]; T1 stage): 114; differentially expressed genes (DEGs) ([2]; T2 stage): 130; differentially expressed genes (DEGs) ([2]; T3 stage): 547; downregulated genes ([2]; across all three stages): 139; upregulated genes ([2]; across all three stages): 552; expression of genes involved in cellulose and lignin biosynthesis (PagCSLD4, PagCAD7, PagCOBL1, PagPAL2) ([2]; miPEP-treated samples, root transcriptome): upregulated
